{
  "source": "patent US9072703B2",
  "about": "(Ipsen Pharma S.A.S., priority 2008, dated 2015)",
  "key": {"[1]": {"experiment": "Rat plasma half-life assay", "format": "in vitro ADME", "conditions": "37° C., LC-MS, read-out: Rat Plasma T½ (converted)", "experimental": "(§1) B. Human and Rat Plasma Half-Life Assay\n(§2) 50 μL was removed at various times, like at 0, 1, 2, 3, 4, 8, 24, 32, 48, 56, 72 hours, mixed with 5 μL formic acid and 150 μL acetonitrile in a microcentrifuge tube, vertexed, and centrifuged for 10 minutes at 10K rpm. The supernatant was transferred to an injection vial and analyzed by LC-MS. The LC-MS system consisted of an API4000 mass spectrometer with an ESI probe. Positive ion mode and full scan detection were used. HPLC separation was carried out on a Luna 3μ C8 (2), 2×30 mm column with a gradient from 90% A to 90% B in 10 minutes at a flow rate of 0.3 ml/min. Buffer A was 1% formic acid in water and buffer B was 1% formic acid acetonitrile."}, "[2]": {"experiment": "Human plasma half-life assay", "format": "in vitro ADME", "conditions": "37° C., LC-MS, read-out: Human Plasma T½ (converted)", "experimental": "as §1, §2"}},
  "note": "Non-standard residues stand in square brackets, D forms with d. Residues, ends and D or L forms follow the SMILES beside them. No end group written: not given here. Ac6c = NC1(C(=O)O)CCCCC1; Ac5c = NC1(C(=O)O)CCCC1; Aib = CC(C)(N)C(=O)O",
  "data": [
    {"molecule": "CC[C@H](C)[C@H](NC(=O)[C@H](CCCCN)NC(=O)[C@H](CC(=O)O)NC(=O)C1(NC(=O)[C@H](C)NC(=O)[C@@H](NC(=O)C2(NC(=O)[C@H](Cc3ccc(O)cc3)NC(=O)[C@H](CC(=O)O)NC(=O)[C@H](CO)NC(=O)[C@@H](NC(=O)[C@H](Cc3ccccc3)NC(=O)[C@@H](NC(=O)CNC(=O)[C@H](CCC(=O)O)NC(=O)[C@H](C)NC(=O)[C@@H](N)Cc3ccc(O)cc3)[C@@H](C)O)[C@@H](C)CC)CCCC2)[C@@H](C)CC)CCCC1)C(=O)N[C@@H](Cc1c[nH]cn1)C(=O)N[C@@H](CCC(N)=O)C(=O)N[C@@H](CCC(N)=O)C(=O)N[C@@H](CC(=O)O)C(=O)N[C@@H](Cc1ccccc1)C(=O)N[C@H](C(=O)N[C@@H](CC(N)=O)C(=O)N[C@@H](Cc1c[nH]c2ccccc12)C(=O)N[C@@H](CC(C)C)C(=O)N[C@@H](CC(C)C)C(=O)N[C@@H](C)C(=O)N[C@@H](CCC(N)=O)C(=O)N[C@@H](CCCCN)C(N)=O)C(C)C", "note": "[Example 30, (A5c^11, 14)hGIP(1-30)-NH2] (H-YAEGTFISDY[Ac5c]IA[Ac5c]DKIHQQDFVNWLLAQK-NH2; N-terminus assumed)", "values": [
      {"measurement": "half-life at 0.1 mg/ml", "setting": "[1]", "value": 816, "unit": "min"},
      {"measurement": "half-life at 0.1 mg/ml", "setting": "[2]", "value": 372, "unit": "min"}
    ]},
    {"molecule": "CCCCCCCCCCCC(=O)NCCCC[C@H](NC(=O)[C@H](CCC(N)=O)NC(=O)[C@@H](NC(=O)[C@@H](NC(=O)[C@H](CC(N)=O)NC(=O)[C@H](Cc1c[nH]cn1)NC(=O)[C@H](CCCCN)NC(=O)[C@H](Cc1c[nH]c2ccccc12)NC(=O)[C@H](CC(=O)O)NC(=O)[C@H](CC(N)=O)NC(=O)[C@H](CCCCN)NC(=O)[C@H](CCCCN)NC(=O)CNC(=O)[C@H](CCCCN)NC(=O)[C@H](CCC(N)=O)NC(=O)[C@H](C)NC(=O)[C@H](CC(C)C)NC(=O)[C@H](CC(C)C)NC(=O)[C@H](Cc1c[nH]c2ccccc12)NC(=O)[C@H](CC(N)=O)NC(=O)[C@@H](NC(=O)[C@H](Cc1ccccc1)NC(=O)[C@H](CC(=O)O)NC(=O)[C@H](CCC(N)=O)NC(=O)[C@H](CCC(N)=O)NC(=O)[C@H](Cc1c[nH]cn1)NC(=O)[C@@H](NC(=O)[C@H](CCCCN)NC(=O)[C@H](CC(=O)O)NC(=O)[C@H](CCSC)NC(=O)[C@H](C)NC(=O)[C@@H](NC(=O)C1(NC(=O)[C@H](Cc2ccc(O)cc2)NC(=O)[C@H](CC(=O)O)NC(=O)[C@H](CO)NC(=O)[C@@H](NC(=O)[C@H](Cc2ccccc2)NC(=O)[C@@H](NC(=O)CNC(=O)[C@H](CCC(=O)O)NC(=O)[C@H](C)NC(=O)[C@@H](N)Cc2ccc(O)cc2)[C@@H](C)O)[C@@H](C)CC)CCCC1)[C@@H](C)CC)[C@@H](C)CC)C(C)C)[C@@H](C)CC)[C@@H](C)O)C(=O)O", "note": "[Example 36, [A5c^11, Lys^43(N—C(O)—(CH2)10—CH3)]hGIP(1-43)-OH]", "values": [
      {"measurement": "half-life at 0.1 mg/ml", "setting": "[1]", "value": 3200, "unit": "min"},
      {"measurement": "half-life at 0.1 mg/ml", "setting": "[2]", "value": 888, "unit": "min"}
    ]},
    {"molecule": "YAEGTFISDY[Ac5c]IAMDKIHQQDFVNWLLAQKGCKNDWKHNI[Ac5c]Q-NH2 [Example 31, (A5c^11, 41, Cys^32)hGIP(1-42)-NH2]", "values": [
      {"measurement": "half-life at 0.1 mg/ml", "setting": "[1]", "value": 978, "unit": "min"},
      {"measurement": "half-life at 0.1 mg/ml", "setting": "[2]", "value": 1600, "unit": "min"}
    ]},
    {"molecule": "YAEGTFISDYSI[Aib]MDKIHQQDFVNWLLAQKGKKNDWKHNITQW-OH [Example 12, (Aib^13, Trp^43)hGIP(1-43)-OH]", "values": [
      {"measurement": "half-life at 0.1 mg/ml", "setting": "[1]", "value": 126, "unit": "min"},
      {"measurement": "half-life at 0.1 mg/ml", "setting": "[2]", "value": 414, "unit": "min"}
    ]},
    {"molecule": "YAEGTFISDY[Ac6c]IA[Ac6c]DKIHQQDFVNWLLAQKGKKNDWKHNI[Ac6c]Q-OH [Example 11, (A6c^11, 14, 41)hGIP(1-42)-OH]", "values": [
      {"measurement": "half-life at 0.1 mg/ml", "setting": "[1]", "value": 516, "unit": "min"},
      {"measurement": "half-life at 0.1 mg/ml", "setting": "[2]", "value": 786, "unit": "min"}
    ]},
    {"molecule": "CCCCCCCCCCCC(=O)NCCC[C@H](NC(=O)CNC(=O)[C@H](CCCCN)NC(=O)[C@H](CCC(N)=O)NC(=O)[C@H](C)NC(=O)[C@H](CC(C)C)NC(=O)[C@H](CC(C)C)NC(=O)[C@H](Cc1c[nH]c2ccccc12)NC(=O)[C@H](CC(N)=O)NC(=O)[C@@H](NC(=O)[C@H](Cc1ccccc1)NC(=O)[C@H](CC(=O)O)NC(=O)[C@H](CCC(N)=O)NC(=O)[C@H](CCC(N)=O)NC(=O)[C@H](Cc1c[nH]cn1)NC(=O)[C@@H](NC(=O)[C@H](CCCCN)NC(=O)[C@H](CC(=O)O)NC(=O)[C@H](CCSC)NC(=O)[C@H](C)NC(=O)[C@@H](NC(=O)C1(NC(=O)[C@H](Cc2ccc(O)cc2)NC(=O)[C@H](CC(=O)O)NC(=O)[C@H](CO)NC(=O)[C@@H](NC(=O)[C@H](Cc2ccccc2)NC(=O)[C@@H](NC(=O)CNC(=O)[C@H](CCC(=O)O)NC(=O)[C@H](C)NC(=O)[C@@H](N)Cc2ccc(O)cc2)[C@@H](C)O)[C@@H](C)CC)CCCC1)[C@@H](C)CC)[C@@H](C)CC)C(C)C)C(=O)N[C@@H](CCCCN)C(=O)N[C@@H](CC(N)=O)C(=O)N[C@@H](CC(=O)O)C(=O)N[C@@H](Cc1c[nH]c2ccccc12)C(=O)N[C@@H](CCCCN)C(=O)N[C@@H](Cc1c[nH]cn1)C(=O)N[C@@H](CC(N)=O)C(=O)N[C@H](C(=O)N[C@H](C(=O)N[C@@H](CCC(N)=O)C(=O)N[C@@H](Cc1c[nH]cn1)C(=O)O)[C@@H](C)O)[C@@H](C)CC", "note": "[Example 34, [A5c^11, Orn^32(N—C(O)—(CH2)10—CH3), His^43]hGIP(1-43)-OH]", "values": [
      {"measurement": "half-life at 0.1 mg/ml", "setting": "[1]", "value": 1210, "unit": "min"},
      {"measurement": "half-life at 0.1 mg/ml", "setting": "[2]", "value": 450, "unit": "min"}
    ]},
    {"molecule": "CC[C@H](C)[C@H](NC(=O)[C@H](CCCCN)NC(=O)[C@H](CC(=O)O)NC(=O)[C@H](CCSC)NC(=O)[C@H](C)NC(=O)[C@@H](NC(=O)C1(NC(=O)[C@H](Cc2ccc(O)cc2)NC(=O)[C@H](CC(=O)O)NC(=O)[C@H](CO)NC(=O)[C@@H](NC(=O)[C@H](Cc2ccccc2)NC(=O)[C@@H](NC(=O)CNC(=O)[C@H](CCC(=O)O)NC(=O)[C@H](C)NC(=O)[C@@H](N)Cc2ccc(O)cc2)[C@@H](C)O)[C@@H](C)CC)CCCC1)[C@@H](C)CC)C(=O)N[C@@H](Cc1c[nH]cn1)C(=O)N[C@@H](CCC(N)=O)C(=O)N[C@@H](CCC(N)=O)C(=O)N[C@@H](CC(=O)O)C(=O)N[C@@H](Cc1ccccc1)C(=O)N[C@H](C(=O)N[C@@H](CC(N)=O)C(=O)N[C@@H](Cc1c[nH]c2ccccc12)C(=O)N[C@@H](CC(C)C)C(=O)N[C@@H](CC(C)C)C(=O)N[C@@H](C)C(=O)N[C@@H](CCC(N)=O)C(=O)N[C@@H](CCCCN)C(N)=O)C(C)C", "note": "[Example 28, (A5c^11)hGIP(1-30)-NH2] (H-YAEGTFISDY[Ac5c]IAMDKIHQQDFVNWLLAQK-NH2; N-terminus assumed)", "values": [
      {"measurement": "half-life at 0.1 mg/ml", "setting": "[1]", "value": 144, "unit": "min"},
      {"measurement": "half-life at 0.1 mg/ml", "setting": "[2]", "value": 396, "unit": "min"}
    ]},
    {"molecule": "CC[C@H](C)[C@H](NC(=O)[C@H](CCCCN)NC(=O)[C@H](CC(=O)O)NC(=O)[C@H](CCSC)NC(=O)[C@H](C)NC(=O)[C@@H](NC(=O)C1(NC(=O)[C@H](Cc2ccc(O)cc2)NC(=O)[C@H](CC(=O)O)NC(=O)[C@H](CO)NC(=O)[C@@H](NC(=O)[C@H](Cc2ccccc2)NC(=O)[C@@H](NC(=O)CNC(=O)[C@H](CCC(=O)O)NC(=O)[C@H](C)NC(=O)[C@@H](N)Cc2ccc(O)cc2)[C@@H](C)O)[C@@H](C)CC)CCCC1)[C@@H](C)CC)C(=O)N[C@@H](Cc1c[nH]cn1)C(=O)N[C@@H](CCC(N)=O)C(=O)N[C@@H](CCC(N)=O)C(=O)N[C@@H](CC(=O)O)C(=O)N[C@@H](Cc1ccccc1)C(=O)N[C@H](C(=O)N[C@@H](CC(N)=O)C(=O)N[C@@H](Cc1c[nH]c2ccccc12)C(=O)N[C@@H](CC(C)C)C(=O)N[C@@H](CC(C)C)C(=O)N[C@@H](C)C(=O)N[C@@H](CCC(N)=O)C(=O)N[C@@H](CCCCN)C(=O)NCC(=O)N[C@@H](CCCCN)C(=O)N[C@@H](CS)C(=O)N[C@@H](CC(N)=O)C(=O)N[C@@H](CC(=O)O)C(=O)N[C@@H](Cc1c[nH]c2ccccc12)C(=O)N[C@@H](CCCCN)C(=O)N[C@@H](Cc1c[nH]cn1)C(=O)N[C@@H](CC(N)=O)C(=O)N[C@H](C(=O)NC1(C(=O)N[C@@H](CCC(N)=O)C(N)=O)CCCC1)[C@@H](C)CC)C(C)C", "note": "[Example 32, (A5c^11, 41, Cys^33)hGIP(1-42)-NH2]", "values": [
      {"measurement": "half-life at 0.1 mg/ml", "setting": "[1]", "value": 528, "unit": "min"},
      {"measurement": "half-life at 0.1 mg/ml", "setting": "[2]", "value": 690, "unit": "min"}
    ]}
  ]
}
